Where “and” joins values, the source holds several entries; their conditions need not be identical. Equal values may be shown once.
Assays:
[1] = molecular target: T1, Bacillus subtilis 5-keto-4-deoxy-D-glucarate dehydratase (YcbC) (Bacillus subtilis, UniProt P42235); assay: 5-keto-4-deoxy-D-glucarate dehydratase, coupled assay with KGSADH; assay type: biochemical; settings: substrate from 0-20 mM D-galactarate, pH 7.5, 25° C.
T1 construct: His; made in house; host or cells: E. coli BL21
Protocol: (§1) 2-Keto-3-deoxy-D-xylonate dehydratase (XylX/DR64-8450), 2-keto-3-deoxy-L-arabonate dehydratase (AraD) and 5-keto-4-deoxy-D-glucarate dehydratase (YcbC): Enzyme activities of XylX, DR64-8450, AraD and YcbC were assayed spectrophotometrically in a coupled assay with the corresponding previous dehydratase and 2-ketoglutaric semialdehyde dehydrogenase (KGSADH) as previously described (Watanabe et al., 2006. J Biol. Chem. 281:33521-33536). […] The reaction was initiated by adding an appropriate amount of 2-keto-3-deoxy-D-xylonate dehydratase (XylX/DR64-8450)/2-keto-3-deoxy-L-arabonate dehydratase (AraD)/5-keto-4-deoxy-D-glucarate dehydratase (YcbC), and the increasing absorbance at 340 nm caused by NADH produced in the reaction was monitored.

[2] = molecular target: T2, Caulobacter crescentus 2-keto-3-deoxy-D-xylonate dehydratase (XylX) (Caulobacter vibrioides, UniProt A0A0H3C4T2); assay: C. crescentus 2-keto-3-deoxy-D-xylonate dehydratase, coupled assay with KGSADH; assay type: biochemical; settings: substrate from 0-20 mM D-xylonate, 1 mM NAD+, pH 7.5, 25° C.
T2 construct: coupled with XylD and KGSADH; BlpI site removed in gene
T2 sequence (A0A0H3C4T2 1-384): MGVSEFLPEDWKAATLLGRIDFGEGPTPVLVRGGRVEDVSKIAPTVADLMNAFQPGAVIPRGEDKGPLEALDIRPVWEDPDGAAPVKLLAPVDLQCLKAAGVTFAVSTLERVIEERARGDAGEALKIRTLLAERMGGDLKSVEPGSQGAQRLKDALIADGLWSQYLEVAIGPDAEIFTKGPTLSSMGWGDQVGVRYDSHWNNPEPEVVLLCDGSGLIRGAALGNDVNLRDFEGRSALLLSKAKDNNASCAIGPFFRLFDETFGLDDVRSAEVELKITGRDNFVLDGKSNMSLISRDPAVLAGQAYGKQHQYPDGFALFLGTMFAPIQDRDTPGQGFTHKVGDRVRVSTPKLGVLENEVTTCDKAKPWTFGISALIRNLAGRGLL
Protocol: as §1

[3] = molecular target: T3, Burkholderia xenovorans LB400 2-keto-3-deoxy-D-xylonate dehydratase (DR64_8450) (Paraburkholderia xenovorans, UniProt Q13FD1); assay: B. xenovorans 2-keto-3-deoxy-D-xylonate dehydratase, coupled assay with KGSADH; assay type: biochemical
T3 construct: coupled with D-xylonate dehydratase and KGSADH
T3 sequence (Q13FD1 1-395): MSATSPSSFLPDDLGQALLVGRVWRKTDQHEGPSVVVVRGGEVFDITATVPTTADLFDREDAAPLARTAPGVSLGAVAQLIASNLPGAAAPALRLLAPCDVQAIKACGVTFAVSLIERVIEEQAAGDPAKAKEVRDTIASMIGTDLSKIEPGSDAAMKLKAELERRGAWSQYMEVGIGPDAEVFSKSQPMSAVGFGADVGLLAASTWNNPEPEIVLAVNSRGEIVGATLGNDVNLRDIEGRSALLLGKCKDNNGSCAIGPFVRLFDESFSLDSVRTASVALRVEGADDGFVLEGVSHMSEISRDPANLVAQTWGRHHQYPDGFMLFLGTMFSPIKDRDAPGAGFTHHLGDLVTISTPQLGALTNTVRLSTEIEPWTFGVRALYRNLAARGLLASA
Protocol: as §1

[4] = molecular target: T4, Lactococcus lactis 2-ketoacid decarboxylase Kivd, wild type (Lactococcus lactis, UniProt Q684J7); assay: Kivd activity inferred from absence of BTO accumulation with L-arabinose as substrate; assay type: cell-based; settings: indicated by no accumulation of BTO using L-arabinose
T4 construct: also expressed from pBDO-5 in E. coli fermentation (A5)
T4 sequence (Q684J7 1-548): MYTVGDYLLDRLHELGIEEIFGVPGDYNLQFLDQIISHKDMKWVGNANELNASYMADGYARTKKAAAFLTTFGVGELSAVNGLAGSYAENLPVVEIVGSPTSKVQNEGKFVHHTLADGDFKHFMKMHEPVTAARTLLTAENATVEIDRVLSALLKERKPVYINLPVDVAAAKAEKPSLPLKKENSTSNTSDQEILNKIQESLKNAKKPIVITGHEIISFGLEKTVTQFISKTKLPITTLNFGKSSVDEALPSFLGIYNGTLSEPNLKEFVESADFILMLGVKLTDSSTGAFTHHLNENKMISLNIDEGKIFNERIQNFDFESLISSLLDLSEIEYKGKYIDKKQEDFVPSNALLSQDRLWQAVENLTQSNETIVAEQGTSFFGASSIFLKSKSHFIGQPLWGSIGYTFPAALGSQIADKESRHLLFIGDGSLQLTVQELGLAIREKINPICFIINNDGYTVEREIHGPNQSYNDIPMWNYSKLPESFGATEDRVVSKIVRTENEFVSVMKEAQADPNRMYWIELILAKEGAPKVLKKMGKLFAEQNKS
Protocol: 125 ml conical flasks with 0.2 g CaCO3 were autoclaved and dried to perform all small-scale fermentations. […] 200 μl of overnight cultures incubated in 2×YT medium were transferred into the flasks and placed in a shaker at a speed of 250 rpm. After adding 0.1 mM isopropyl-β-D-thiogalactoside (IPTG), the flasks were sealed by parafilm and the fermentation was performed for 48 hours at 30° C. The fermentation products were measured by HPLC.

[5] = molecular target: T5, Burkholderia xenovorans LB400 D-xylose dehydrogenase (DR64_8447) (Paraburkholderia xenovorans, UniProt Q13FC8); assay: B. xenovorans D-xylose dehydrogenase, NADH generation at 340 nm; assay type: biochemical; settings: D-xylose 0 to 10 mM, 1 mM NAD+
T5 construct: gene from LB400 genomic DNA
T5 sequence (Q13FC8 1-268): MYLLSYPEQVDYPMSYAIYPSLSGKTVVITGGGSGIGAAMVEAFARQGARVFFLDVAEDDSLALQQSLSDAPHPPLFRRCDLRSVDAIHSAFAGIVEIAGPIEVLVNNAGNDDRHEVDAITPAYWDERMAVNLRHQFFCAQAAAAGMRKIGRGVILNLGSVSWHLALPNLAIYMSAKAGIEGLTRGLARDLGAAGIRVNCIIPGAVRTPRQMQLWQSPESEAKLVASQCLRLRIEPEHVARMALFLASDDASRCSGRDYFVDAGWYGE
Protocol: (§2) A series of enzymatic assays were conducted to estimate the initial activity as a function of starting substrate concentration. […] Kinetic constants (kcat/Km) for following enzymes were calculated with the same method.

[6] = molecular target: T6, Caulobacter crescentus D-xylose dehydrogenase (XylB) (Caulobacter vibrioides, UniProt B8H1Z0); assay: C. crescentus D-xylose dehydrogenase, NADH generation at 340 nm; assay type: biochemical; settings: D-xylose 0 to 10 mM, 1 mM NAD+
T6 construct: His; made in house; host or cells: E. coli BL21
T6 sequence (B8H1Z0 1-248): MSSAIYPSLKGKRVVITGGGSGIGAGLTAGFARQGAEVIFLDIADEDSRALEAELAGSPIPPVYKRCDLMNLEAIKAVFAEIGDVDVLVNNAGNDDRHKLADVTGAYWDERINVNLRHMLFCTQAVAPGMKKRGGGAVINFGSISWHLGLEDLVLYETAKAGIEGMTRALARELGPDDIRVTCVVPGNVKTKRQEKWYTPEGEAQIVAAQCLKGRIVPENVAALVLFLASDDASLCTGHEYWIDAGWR
Protocol: as §2

[7] = 100 mM Tris-HCl, 5 mM MgCl2, pH 7.5, 30° C.

T1 sequence (P42235 whole entry): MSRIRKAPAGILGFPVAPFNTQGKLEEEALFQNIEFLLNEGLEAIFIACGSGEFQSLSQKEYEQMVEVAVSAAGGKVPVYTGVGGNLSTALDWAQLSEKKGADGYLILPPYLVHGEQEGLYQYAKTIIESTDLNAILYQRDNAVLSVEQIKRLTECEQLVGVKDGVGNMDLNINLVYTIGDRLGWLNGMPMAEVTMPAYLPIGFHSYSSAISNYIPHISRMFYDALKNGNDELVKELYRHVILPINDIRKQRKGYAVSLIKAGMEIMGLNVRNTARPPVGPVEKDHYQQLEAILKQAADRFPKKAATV

For `O=C(O)C(=O)C[C@H](O)[C@@H](O)C(=O)O` [5-keto-4-deoxy-D-glucarate], the “specific constant (kcat/Km), compared within D-galacturonate pathway” value [1] was “lowest specific constant”.
With `O=C(O)C(=O)C[C@H](O)CO` [2-keto-3-deoxy-D-xylonate] the kcat [2] was 0.53 s⁻¹, the kcat/Km [2] was 260 M⁻¹ s⁻¹ and the kcat ([3]; coupled assay, substrate from 0-20 mM D-xylonate, 1 mM NAD+, pH 7.5, 25° C.) was 4.7 s⁻¹. The “kcat compared to XylX of C. crescentus” value ([3]; higher kcat (4.7 s^−1) vs 0.53 s^−1) was 9 fold.
For `O=C(O)C(=O)C[C@@H](O)CO` [2-keto-3-deoxy-L-arabonate], the “Kivd activity on 2-keto-3-deoxy-L-arabonate” value [4] was “not active”.
`OC1OC[C@@H](O)[C@H](O)[C@H]1O` (stereo partly drawn) [D-xylose] showed a Km [5, 7] of 1970 ± 120 µM, a kcat ([5]; pH 7.5, 30° C.) of 49.9 ± 4.2 s⁻¹ and a Km [6, 7] of 850 ± 80 µM. The kcat ([6]; pH 7.5, 30° C.) was 12.1 s⁻¹ and 12.1 ± 2.2 s⁻¹.
